The source of these data is PubChem BioAssay AID1996.

In general, solubility (kinetic) refers to the concentration staying in solution when a stock, usually in DMSO, is diluted into the medium.

Converted amounts (≈) assume the structure as drawn. Some results are limits rather than exact numbers.

The conditions of this data set: buffer; pH 7.4; 200.0 µM.
As to `CCCOc1ccc(Cl)cc1/C=C1/C(=O)ON=C1C`, the kinetic solubility was 29.2 µg/mL (≈ 104 µM).
The same measure for `Nn1c(Nc2ccc(Cl)cc2)nncc1=O`: more than 35.6 µg/mL; for `Cn1cccc1C(=O)OCC(=O)N1CCN(c2ccccc2)CC1`: 48.7 µg/mL (≈ 149 µM).
In the case of `CCC(=O)N/C(N)=N/c1nc(C)c2cc(C)c(C)cc2n1`, the solubility (kinetic) worked out at 11.6 µg/mL (≈ 40.7 µM).
With `Cc1cc(C(=O)COC(=O)c2cccc(NS(C)(=O)=O)c2)c(C)n1CC1CCCO1` (stereo not given) the figure was 43.5 µg/mL (≈ 100 µM).
With `Cc1ccc(OCc2ccc(C(=O)Nc3cc(C)on3)o2)c([N+](=O)[O-])c1` the figure was 1.4 µg/mL (≈ 3.92 µM).
Compound `COC(OC)C1(C)C(C#N)=C(N)Oc2c1c(=O)oc1ccccc21` (stereo not given) yielded a solubility (kinetic) of 5.3 µg/mL (≈ 16.1 µM).
The same measure for `COc1ccc(CCCC(=O)Nc2cc(C)ccc2OC)cc1`: 20 µg/mL (≈ 63.8 µM); for `COCCNC(=O)C(C)OC(=O)C1=Cc2ccccc2OC1` (stereo not given): more than 45.8 µg/mL; for `C=CCn1c(COc2ccccc2OC)nc2ccccc21`: 10.2 µg/mL (≈ 34.7 µM).
With `COc1ccc(CNC(=O)CC2(CC(=O)O)CCCCC2)cc1` the figure was more than 47.9 µg/mL.
With `N#C/C(C(N)=O)=C1/SC=C(c2ccccc2)N1c1ccccc1` the figure was 0.4 µg/mL (≈ 1.25 µM).
`O=C(NCc1ccccn1)c1n[nH]c(=O)c2ccccc12` came in with a solubility (kinetic) of more than 42 µg/mL.
With `CNC(=S)N(CCc1c(C)[nH]c2ccccc12)Cc1cccnc1` the figure was more than 50.8 µg/mL; with `C=CCSc1nc2c(c(-c3ccsc3)c1C#N)CN(C)CC2`, 23 µg/mL (≈ 70.2 µM); with `Cc1ccc(N2C(=O)CC(C)(C)CC2=O)cc1Cl`, 12.5 µg/mL (≈ 47 µM).
The same measure for `S=C(NCc1ccco1)NC1CCCc2ccccc21` (stereo not given): 36.4 µg/mL (≈ 127 µM).
For the compound `CSc1nsc(NC(=O)OCc2ccc(Cl)cc2)n1`, the kinetic solubility stood at 8.4 µg/mL (≈ 26.6 µM).
For the compound `Cc1ccc(CNC(=S)NCc2ccncc2)cc1`, the kinetic solubility amounted to 39.7 µg/mL (≈ 146 µM).
`CC(=O)NCCNC(=O)c1ccc(-n2c(C)ccc2C)cc1` registered a kinetic solubility of 35.3 µg/mL (≈ 118 µM).
Compound `CCC(C)[C@H](NC(=O)N1CCC(C)CC1)C(=O)OC` (stereo not given in full) gave a solubility (kinetic) of more than 40.6 µg/mL.
`O=C(Cc1ccccc1)NCC(=O)Nc1cccc(Cl)c1` came in with a kinetic solubility of 10 µg/mL (≈ 33 µM).
The same measure for `CC(NC(=O)COC(=O)COc1ccc(Cl)cc1)c1ccccc1` (stereo not given): 40.2 µg/mL (≈ 116 µM); for `O=C(c1ccco1)N1CCCC(Nc2ccc3c(c2)OCCO3)C1` (stereo not given): 44.7 µg/mL (≈ 136 µM).
The compound `CCOc1ncccc1C(=O)Nc1ccc2c(c1)OCCO2` returned a solubility (kinetic) of more than 45 µg/mL.
Consider `CCOn1c(=O)c(-c2ccccc2)[n+]([O-])c2ccccc21`, for which the kinetic solubility was more than 42.3 µg/mL.
With `COc1ccc(-n2c(O)c(C=NCCN(C)C)c(=O)[nH]c2=O)cc1` the figure was more than 49.9 µg/mL; with `CCn1c(SC(C)C(=O)NCC2CCCO2)nc2ccccc21` (stereo not given), 49.9 µg/mL (≈ 150 µM); with `COc1ccc(CNC(=O)COC(=O)C2(C)CC2(Cl)Cl)cc1` (stereo not given), more than 51.9 µg/mL.
Turning to `CN1CCCN(Cc2cccc3ccccc23)CC1`, the kinetic solubility was found to be 24.7 µg/mL (≈ 97.1 µM).
With `Cn1cc([N+](=O)[O-])c(C(=O)NCC(=O)O)n1` the figure was more than 34.2 µg/mL; with `CCOc1ccccc1/C=C/c1cc(C(=O)O)c2ccccc2n1`, 45.8 µg/mL (≈ 143 µM); with `CCCn1c(C(O)c2ccc(C)cc2)nc2ccccc21` (stereo not given), 15.9 µg/mL (≈ 56.7 µM).
With `N#Cc1ccccc1Cn1c(=O)oc2ccccc21` the figure was 30.9 µg/mL (≈ 123 µM); with `O=C(OCC(=O)N1CCC(Cc2ccccc2)CC1)c1cncc(Br)c1`, 9.9 µg/mL (≈ 23.7 µM).
In turn, `Cc1ccc2[nH]cc(CCNC(=O)C3CCCCC3)c2c1` gave a kinetic solubility of 34.2 µg/mL (≈ 120 µM).
The same measure for `O=C(Nc1nc2ccccc2[nH]1)c1ccc(Br)o1`: 15.5 µg/mL (≈ 50.6 µM); for `COc1cc(N)c(Cl)cc1C(=O)OCC(=O)c1cccs1`: 4.2 µg/mL (≈ 12.9 µM); for `CSS(=O)(=O)c1cccc2cccnc12`: more than 35.9 µg/mL.
The same measure for `Nc1cc(=O)[nH]c(SCC(=O)N2CCCC2)n1`: more than 38.1 µg/mL; for `CCOC(=O)c1ccc(NC2=CC(=O)CC(c3ccco3)C2)cc1` (stereo not given): 9.6 µg/mL (≈ 29.5 µM); for `O=C(CN1C(=O)c2ccccc2C1=O)OCC(=O)N1CCCCC1`: more than 49.6 µg/mL.
As to `CCOC(=O)CC(=O)Nc1ccsc1C(N)=O`, the kinetic solubility was 36.1 µg/mL (≈ 141 µM).
With `O=C(CSc1cccc[n+]1[O-])Nc1ccc(Br)cc1Br` the figure was 6.7 µg/mL (≈ 16 µM); with `Cc1ccc(-c2csc(NC(=O)c3ccc(F)cc3)c2C(=O)O)cc1`, more than 53.3 µg/mL.
With `Cc1nc2ccccc2n1CCOc1ccccc1` the figure was more than 37.8 µg/mL; with `Nc1nc(Cl)cc(=O)n1Cc1ccc(Cl)cc1`, 28.1 µg/mL (≈ 104 µM).
With `CCC1CCCCN1Cc1ccc(N)cc1` (stereo not given) the figure was more than 32.8 µg/mL; with `CC(C)(C)c1ccc(NC(=S)NCc2cccnc2)cc1`, 40.8 µg/mL (≈ 136 µM).
On to `Cc1ccc(C)c(NC(=O)C2CC(=O)N(C3CCCCC3)C2)c1` (stereo not given), for which the kinetic solubility came out at 41.5 µg/mL (≈ 132 µM).
The same measure for `COc1cc(/C=N/O)ccc1Oc1cnccn1`: more than 36.8 µg/mL.
The same measure for `COc1ccc(CCN2C(=O)C(C)=C(C)C2=O)cc1OC`: more than 43.4 µg/mL.
With `CC1=C(C(=O)OC(C)(C)C)C(c2cccc3ccccc23)NC(=O)N1` (stereo not given) the figure was less than 0.4 µg/mL; with `Cc1noc(/C=C/c2ccccn2)c1[N+](=O)[O-]`, 19.3 µg/mL (≈ 83.5 µM); with `O=C(O)/C=C/C(=O)Nc1ccc(OC(F)(F)F)cc1`, 38.8 µg/mL (≈ 141 µM).
Compound `Cc1ccc(C(=O)CN2C(=O)C(C)Oc3ccccc32)cc1` (stereo not given) returned a kinetic solubility of 21.6 µg/mL (≈ 73.1 µM).
`COC(=O)c1ccccc1NC(=S)N1CCN(c2ccccc2)CC1`: the kinetic solubility was 13.4 µg/mL (≈ 37.7 µM).
Regarding `CCc1cc(C(=O)c2ccccc2)c(N)s1`, the solubility (kinetic) stood at 16.6 µg/mL (≈ 71.8 µM). This solubility kinetic and that of the compound before are within 1.5-fold of each other.
The compound `Cc1ccc(CNC(=O)CCSCc2ccccc2C)cc1` came in with a kinetic solubility of 6.5 µg/mL (≈ 20.7 µM).
The same measure for `O=C(COC(=O)[C@H](Cc1ccccc1)NC(=O)c1ccco1)Nc1ccccc1`: more than 58.9 µg/mL; for `Cc1cc(C)cc(OCC(=O)Nc2nc(-c3cccnc3)cs2)c1`: 3.2 µg/mL (≈ 9.43 µM).
With `Cc1cccc(OC(=O)c2cccnc2)c1C` the figure was 25 µg/mL (≈ 110 µM); with `COc1ccc(NC(=O)COc2cccnc2[N+](=O)[O-])cc1OC`, more than 50 µg/mL.
With `Cc1nc(N)nc(Cl)c1Cc1ccc(Cl)cc1` the figure was 3.6 µg/mL (≈ 13.4 µM).
The compound `O=C1C2CCCN2C(=S)N1Cc1ccccc1` (stereo not given) came in with a solubility (kinetic) of more than 36.9 µg/mL.
The same measure for `O=C1Cc2ccccc2C(=O)N1c1cccc(Cl)c1`: more than 40.8 µg/mL.
The same measure for `COC(=O)c1cn(-c2cccc(C)n2)cn1`: more than 32.6 µg/mL.
Regarding `O=C(COC(=O)Cc1ccc(S(=O)(=O)N2CCOCC2)s1)Nc1ccc(OC(F)F)cc1`, the kinetic solubility is 63.7 µg/mL (≈ 130 µM).
Compound `CC(C)(CNC(=O)c1ccccc1F)CNC(=O)c1ccccc1F` returned a kinetic solubility of 51.6 µg/mL (≈ 149 µM). The solubility kinetic values of the last two compounds are within 1.5-fold of each other.
For the compound `CCc1c(C)nc(N2CCN(c3ccc(OC)cc3)CC2)[nH]c1=O`, the kinetic solubility was 5.5 µg/mL (≈ 16.7 µM).
The same measure for `O=C(O)CC(CC(=O)Nc1ccc(-c2ccccc2)cc1)c1ccccc1` (stereo not given): more than 53.9 µg/mL.
With `Cc1ccc2c(c1)sc1nc(=O)n(-c3ccccc3)c(=O)n12` the figure was 2.3 µg/mL (≈ 7.43 µM); with `CCN(C(=O)CN1C(=S)NC(C)(C)CC1C)c1ccc(C)c(C)c1` (stereo not given), more than 52.1 µg/mL; with `O=C(CN1C(=O)NC2(CCc3ccccc32)C1=O)NCc1ccc(Cl)cc1` (stereo not given), more than 57.6 µg/mL.
With `O=C(OCC(=O)c1ccc(Cl)s1)c1cncc(Br)c1` the figure was 17.5 µg/mL (≈ 48.5 µM); with `COc1ccc(NC(=O)CC2CC3CCC2C3)cn1` (stereo not given), 29.9 µg/mL (≈ 115 µM).
For `N/C(=N\OC(=O)/C=C/c1ccccc1)c1ccc(Cl)cc1`, the solubility (kinetic) turned out to be 1.3 µg/mL (≈ 4.32 µM).
With `O=C(CSC1=NCCN1)NC(c1ccccc1)c1ccccc1` the figure was 44 µg/mL (≈ 135 µM); with `CCOC(=O)c1cnc(-c2ccccc2)nc1C(F)(F)F`, less than 0.3 µg/mL; with `CC(C)n1c(=S)[nH]c2cc(Cl)ccc21`, 11 µg/mL (≈ 48.5 µM).
With `Cc1ccc(S(=O)(=O)N2CCOCC2)cc1C(=O)OCC(=O)N1CCCC1=O` the figure was more than 61.6 µg/mL.
In turn, `CCCc1cc(C(=O)Nc2ccc(C#N)cc2)no1` yielded a kinetic solubility of 2.4 µg/mL (≈ 9.4 µM).
The same measure for `O=C(COC(=O)/C=C/c1cccs1)NC1CC1`: more than 37.7 µg/mL; for `O=C1c2ccccc2C(O)(c2ccccc2)N1CCc1ccccc1` (stereo not given): 1.3 µg/mL (≈ 3.95 µM).
The same measure for `C=C(c1ccccc1Cl)[n+]1ccccc1.F[B-](F)(F)F`: more than 45.5 µg/mL; for `CC1(C)CC(NS(=O)(=O)c2ccc(Cl)cc2)CC(C)(C)N1`: more than 49.6 µg/mL; for `O=C(Nc1ccc2c(c1)OCO2)C1CC(=O)N(c2ccccc2)C1` (stereo not given): 3.3 µg/mL (≈ 10.2 µM).
With `COc1ccc(Cl)cc1NC(=O)C1CC(c2ccccc2O)=NO1` (stereo not given) the figure was 0.9 µg/mL (≈ 2.6 µM); with `COC(=O)CC1C(=O)NCCN1C(=O)Nc1cccc(Cl)c1` (stereo not given), 48.8 µg/mL (≈ 150 µM); with `CSc1ccccc1NC(=O)CCn1c(=O)oc2ccccc21`, more than 49.3 µg/mL.
For the compound `NC(=O)C1CCCN(C(=O)CNC(=O)C23CC4CC(CC(C4)C2)C3)C1` (stereo not given), the solubility (kinetic) is 38.3 µg/mL (≈ 110 µM).
With `N#Cc1ccc(C(=O)N2CCN(c3ncccn3)CC2)cc1` the figure was more than 44 µg/mL.
With `CCc1c(C(=O)N2CCCN(C)CC2)csc1C` the figure was more than 40 µg/mL; with `COc1ccc(Cn2c(=S)[nH]c3ccccc32)cc1`, 1.2 µg/mL (≈ 4.44 µM).
The same measure for `CCOC(=O)C1CCCN(C(=O)c2cc(-c3ccco3)nc3ccccc23)C1` (stereo not given): more than 56.8 µg/mL.
Consider `CCOc1ccccc1C(=O)Nc1ccc(C(=O)c2ccccc2)cc1`, for which the kinetic solubility was less than 0.7 µg/mL.
With `CN(CC(=O)NCc1ccncc1)S(=O)(=O)c1ccc(Cl)cc1` the figure was more than 53.1 µg/mL.
The same measure for `COc1cc(C(=O)Nc2cc(C)ccc2C)ccc1OCc1c(C)noc1C`: 7.1 µg/mL (≈ 18.7 µM); for `COc1ccc(C(=O)NC(=S)Nc2cccnc2)cc1Cl`: 1.5 µg/mL (≈ 4.66 µM).
For the compound `O=C(CCc1ccccc1)Nc1cccnc1Cl`, the kinetic solubility came to 35.1 µg/mL (≈ 135 µM). Against the preceding compound, the solubility kinetic is about 23-fold higher.
Take `CCOc1ccc(CC(=O)N/N=C/c2cccnc2)cc1`: the solubility (kinetic) was more than 42.5 µg/mL.
Compound `O=C(Nc1ccc(OC(F)(F)F)cc1)c1ccc2nccnc2c1` displayed a kinetic solubility of 11.4 µg/mL (≈ 34.2 µM).
`COc1cccc(C(=O)NCCSc2c(C)[nH]c3ccccc23)c1OC`: the solubility (kinetic) turned out to be 16.1 µg/mL (≈ 43.5 µM). This solubility kinetic and that of the compound before are within 1.5-fold of each other.
The compound `Cc1ccc(O)c(NC(=O)c2cc(-c3cccs3)on2)c1` displayed a kinetic solubility of 0.6 µg/mL (≈ 2 µM).
With `Clc1ccc(CNc2ncccn2)cc1` the figure was 24.4 µg/mL (≈ 111 µM).
